# Data as given in ChEMBL document CHEMBL4507275, “Data for DCP probe BI-2545” (2021).
# Key:
# [1] = target: Serine/threonine-protein kinase N1 (Homo sapiens) (UniProt Q16512); details: Compound concentration 1000.0 nM
# [2] = target: Serine/threonine-protein kinase haspin (Homo sapiens) (UniProt Q8TF76); details: Compound concentration 1000.0 nM
# [3] = target: Casein kinase I isoform alpha (Homo sapiens) (UniProt P48729); details: Compound concentration 1000.0 nM
# [4] = test system: Epidermal growth factor receptor (Homo sapiens), P00533 [L858R]; details: Compound concentration 1000.0 nM
# [5] = target: Tyrosine-protein kinase Mer (Homo sapiens) (UniProt Q12866); details: Compound concentration 1000.0 nM
# [6] = target: Serine/threonine-protein kinase 38-like (Homo sapiens) (UniProt Q9Y2H1); details: Compound concentration 1000.0 nM
# [7] = target: GABA-A receptor; anion channel (Rattus norvegicus) (UniProt O09028+P15431+P18506+P18508+P19969+P20236+P23574+P23576+P28471+P28473+P30191+P62813+P63079+P63138+Q91ZM7+Q9ES14); details: Compound concentration 10.0 uM
# [8] = target: 1-phosphatidylinositol 3-phosphate 5-kinase (Homo sapiens) (UniProt Q9Y2I7); details: Compound concentration 1000.0 nM
# [9] = target: Cyclin-dependent kinase 17 (Homo sapiens) (UniProt Q00537); details: Compound concentration 1000.0 nM
# [10] = target: Mitogen-activated protein kinase kinase kinase 7 (Homo sapiens) (UniProt O43318); details: Compound concentration 1000.0 nM
# [11] = target: Serine/threonine-protein kinase SIK3 (Homo sapiens) (UniProt Q9Y2K2); details: Compound concentration 1000.0 nM
# [12] = target: Cyclin-dependent kinase 4 (Homo sapiens) (UniProt P11802); details: Compound concentration 1000.0 nM
# [13] = target: T1, 5-hydroxytryptamine receptor 1A (Homo sapiens) (UniProt P08908); details: Compound concentration 10.0 uM
# T1 sequence (whole entry): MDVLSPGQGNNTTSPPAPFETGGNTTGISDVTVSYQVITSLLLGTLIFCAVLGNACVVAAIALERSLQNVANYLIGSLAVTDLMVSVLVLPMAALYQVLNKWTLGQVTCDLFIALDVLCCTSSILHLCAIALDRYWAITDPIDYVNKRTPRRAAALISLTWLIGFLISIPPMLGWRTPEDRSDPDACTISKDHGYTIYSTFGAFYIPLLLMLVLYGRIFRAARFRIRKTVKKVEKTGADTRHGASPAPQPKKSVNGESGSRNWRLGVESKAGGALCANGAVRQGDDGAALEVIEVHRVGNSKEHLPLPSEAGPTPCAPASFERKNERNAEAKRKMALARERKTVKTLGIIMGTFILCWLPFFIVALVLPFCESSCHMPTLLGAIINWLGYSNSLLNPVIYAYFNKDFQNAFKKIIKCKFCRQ
# [14] = test system: Epidermal growth factor receptor (Homo sapiens), P00533 [UNDEFINED MUTATION]; details: Compound concentration 1000.0 nM
# [15] = target: Wee1-like protein kinase 2 (Homo sapiens) (UniProt P0C1S8); details: Compound concentration 1000.0 nM
# [16] = target: Tyrosine-protein kinase Srms (Homo sapiens) (UniProt Q9H3Y6); details: Compound concentration 1000.0 nM
# [17] = target: MAP kinase-interacting serine/threonine-protein kinase 1 (Homo sapiens) (UniProt Q9BUB5); details: Compound concentration 1000.0 nM
# [18] = target: cAMP-dependent protein kinase catalytic subunit beta (Homo sapiens) (UniProt P22694); details: Compound concentration 1000.0 nM
# [19] = target: Inhibitor of nuclear factor kappa-B kinase subunit beta (Homo sapiens) (UniProt O14920); details: Compound concentration 1000.0 nM
# [20] = target: Tyrosine-protein kinase receptor Tie-1 (Homo sapiens) (UniProt P35590); details: Compound concentration 1000.0 nM
# [21] = target: Cyclin-dependent kinase 2 homolog (Plasmodium falciparum (isolate 3D7)) (UniProt P61075); details: Compound concentration 1000.0 nM
# [22] = target: Calcium/calmodulin-dependent protein kinase type II subunit alpha (Homo sapiens) (UniProt Q9UQM7); details: Compound concentration 1000.0 nM
# [23] = target: Serine/threonine-protein kinase SBK1 (Homo sapiens) (UniProt Q52WX2); details: Compound concentration 1000.0 nM
# [24] = target: Cyclin-G-associated kinase (Homo sapiens) (UniProt O14976); details: Compound concentration 1000.0 nM
# [25] = target: NT-3 growth factor receptor (Homo sapiens) (UniProt Q16288); details: Compound concentration 1000.0 nM
# [26] = target: Aurora kinase A (Homo sapiens) (UniProt O14965); details: Compound concentration 1000.0 nM
# [27] = target: Casein kinase II subunit alpha' (Homo sapiens) (UniProt P19784); details: Compound concentration 1000.0 nM
# [28] = target: Serine/threonine-protein kinase NIM1 (Homo sapiens) (UniProt Q8IY84); details: Compound concentration 1000.0 nM
# [29] = target: Casein kinase II subunit alpha (Homo sapiens) (UniProt P68400); details: Compound concentration 1000.0 nM
# [30] = target: Serine/threonine-protein kinase BRSK1 (Homo sapiens) (UniProt Q8TDC3); details: Compound concentration 1000.0 nM
# [31] = target: Serine/threonine-protein kinase PLK1 (Homo sapiens) (UniProt P53350); details: Compound concentration 1000.0 nM
# [32] = target: 5-hydroxytryptamine receptor 7 (Homo sapiens) (UniProt P34969); details: Compound concentration 10.0 uM
# [33] = target: Ribosomal protein S6 kinase beta-1 (Homo sapiens) (UniProt P23443); details: Compound concentration 1000.0 nM
# [34] = target: Protein-tyrosine kinase 2-beta (Homo sapiens) (UniProt Q14289); details: Compound concentration 1000.0 nM
# [35] = test system: Serine/threonine-protein kinase B-raf (Homo sapiens), P15056 [V600E]; details: Compound concentration 1000.0 nM
# [36] = target: 5-hydroxytryptamine receptor 2B (Homo sapiens) (UniProt P41595); details: Compound concentration 10.0 uM
# [37] = test system: Tyrosine-protein kinase ABL1 (Homo sapiens), P00519 [H396P]; details: Compound concentration 1000.0 nM
# [38] = target: Calcium-dependent protein kinase 1 (Plasmodium falciparum) (UniProt P62344); details: Compound concentration 1000.0 nM
# Cyclin-dependent kinase 2 homolog (Plasmodium falciparum (isolate 3D7)), sequence (P61075 whole entry): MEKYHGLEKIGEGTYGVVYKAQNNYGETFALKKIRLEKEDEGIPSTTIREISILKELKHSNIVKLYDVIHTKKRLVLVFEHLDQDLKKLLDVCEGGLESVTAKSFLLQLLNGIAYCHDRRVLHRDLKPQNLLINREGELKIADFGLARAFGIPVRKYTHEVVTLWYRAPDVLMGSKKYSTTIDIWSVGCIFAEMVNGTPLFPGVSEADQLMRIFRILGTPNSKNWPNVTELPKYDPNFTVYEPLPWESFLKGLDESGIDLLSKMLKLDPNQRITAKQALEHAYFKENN
# Ribosomal protein S6 kinase beta-1 (Homo sapiens), sequence (P23443 whole entry, looked up): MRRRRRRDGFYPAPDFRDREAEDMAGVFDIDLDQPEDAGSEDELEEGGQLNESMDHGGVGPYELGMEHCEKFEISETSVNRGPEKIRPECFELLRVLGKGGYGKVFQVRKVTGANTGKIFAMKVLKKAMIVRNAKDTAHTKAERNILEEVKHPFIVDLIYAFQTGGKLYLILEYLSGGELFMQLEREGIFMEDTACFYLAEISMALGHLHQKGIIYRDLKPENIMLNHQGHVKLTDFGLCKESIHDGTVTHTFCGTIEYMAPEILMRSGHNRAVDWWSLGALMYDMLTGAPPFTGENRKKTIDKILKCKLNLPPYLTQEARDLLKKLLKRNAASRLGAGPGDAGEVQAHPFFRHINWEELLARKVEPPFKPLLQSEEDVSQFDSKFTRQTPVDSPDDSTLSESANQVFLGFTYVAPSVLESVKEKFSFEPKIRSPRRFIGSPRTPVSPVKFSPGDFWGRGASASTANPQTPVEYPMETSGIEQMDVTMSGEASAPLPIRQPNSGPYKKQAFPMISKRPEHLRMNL
# Serine/threonine-protein kinase 38-like (Homo sapiens), sequence (Q9Y2H1 2-464 limits assumed): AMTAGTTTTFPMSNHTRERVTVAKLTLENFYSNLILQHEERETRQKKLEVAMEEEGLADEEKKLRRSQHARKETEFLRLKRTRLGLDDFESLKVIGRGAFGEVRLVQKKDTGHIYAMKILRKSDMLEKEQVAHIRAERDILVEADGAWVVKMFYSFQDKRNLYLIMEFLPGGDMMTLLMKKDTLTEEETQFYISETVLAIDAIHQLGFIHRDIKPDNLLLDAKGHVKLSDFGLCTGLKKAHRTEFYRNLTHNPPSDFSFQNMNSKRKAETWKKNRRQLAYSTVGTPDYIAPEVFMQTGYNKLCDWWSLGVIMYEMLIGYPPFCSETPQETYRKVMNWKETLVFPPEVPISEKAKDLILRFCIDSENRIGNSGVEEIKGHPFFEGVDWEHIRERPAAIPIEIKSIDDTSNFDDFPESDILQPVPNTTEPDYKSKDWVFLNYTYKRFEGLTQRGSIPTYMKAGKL
# MAP kinase-interacting serine/threonine-protein kinase 1 (Homo sapiens), sequence (Q9BUB5 whole entry, looked up): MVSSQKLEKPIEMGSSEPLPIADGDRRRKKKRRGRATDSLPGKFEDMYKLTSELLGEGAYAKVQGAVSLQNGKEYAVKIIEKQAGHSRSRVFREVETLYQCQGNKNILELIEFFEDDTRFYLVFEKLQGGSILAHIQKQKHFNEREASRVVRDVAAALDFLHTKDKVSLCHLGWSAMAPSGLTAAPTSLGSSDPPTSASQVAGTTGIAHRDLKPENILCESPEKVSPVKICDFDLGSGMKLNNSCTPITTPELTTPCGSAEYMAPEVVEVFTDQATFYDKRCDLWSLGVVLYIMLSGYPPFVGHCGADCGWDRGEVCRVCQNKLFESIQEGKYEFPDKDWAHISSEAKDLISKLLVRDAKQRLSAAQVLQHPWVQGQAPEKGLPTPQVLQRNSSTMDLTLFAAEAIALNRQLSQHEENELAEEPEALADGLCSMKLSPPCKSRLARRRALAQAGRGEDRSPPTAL
# Serine/threonine-protein kinase NIM1 (Homo sapiens), sequence (Q8IY84 whole entry): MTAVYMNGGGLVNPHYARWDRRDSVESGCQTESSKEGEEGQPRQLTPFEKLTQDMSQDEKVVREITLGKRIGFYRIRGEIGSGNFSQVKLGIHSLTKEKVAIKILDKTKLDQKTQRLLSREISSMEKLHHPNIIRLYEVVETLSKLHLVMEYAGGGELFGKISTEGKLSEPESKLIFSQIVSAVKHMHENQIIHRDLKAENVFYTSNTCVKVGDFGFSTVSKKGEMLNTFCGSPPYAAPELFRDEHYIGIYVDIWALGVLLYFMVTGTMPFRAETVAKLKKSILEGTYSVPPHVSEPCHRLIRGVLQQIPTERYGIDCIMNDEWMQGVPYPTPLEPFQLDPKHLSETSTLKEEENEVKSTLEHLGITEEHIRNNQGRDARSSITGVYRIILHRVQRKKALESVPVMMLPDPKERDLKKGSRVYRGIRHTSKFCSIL
# Serine/threonine-protein kinase haspin (Homo sapiens), sequence (Q8TF76 whole entry, canonical isoform): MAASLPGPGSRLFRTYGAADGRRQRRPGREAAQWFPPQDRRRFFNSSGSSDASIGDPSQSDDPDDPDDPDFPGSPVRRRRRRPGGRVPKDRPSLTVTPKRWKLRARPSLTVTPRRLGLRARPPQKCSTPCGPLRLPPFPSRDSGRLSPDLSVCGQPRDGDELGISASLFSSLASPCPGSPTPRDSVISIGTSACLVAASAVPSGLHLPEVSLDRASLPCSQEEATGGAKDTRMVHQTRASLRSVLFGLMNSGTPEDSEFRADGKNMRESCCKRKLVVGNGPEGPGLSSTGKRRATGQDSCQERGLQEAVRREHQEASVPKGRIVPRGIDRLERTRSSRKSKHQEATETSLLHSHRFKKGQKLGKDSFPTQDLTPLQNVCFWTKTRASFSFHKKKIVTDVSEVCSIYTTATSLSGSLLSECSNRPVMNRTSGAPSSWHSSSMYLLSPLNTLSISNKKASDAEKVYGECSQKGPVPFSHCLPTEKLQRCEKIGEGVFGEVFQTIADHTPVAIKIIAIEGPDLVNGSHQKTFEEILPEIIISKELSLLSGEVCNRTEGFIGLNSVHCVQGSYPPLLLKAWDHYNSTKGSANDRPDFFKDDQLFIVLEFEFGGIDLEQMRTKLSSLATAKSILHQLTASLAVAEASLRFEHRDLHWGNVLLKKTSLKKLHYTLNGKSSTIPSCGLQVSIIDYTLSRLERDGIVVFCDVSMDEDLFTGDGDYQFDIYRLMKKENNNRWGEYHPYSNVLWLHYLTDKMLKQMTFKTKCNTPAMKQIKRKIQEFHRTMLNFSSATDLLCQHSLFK
# Aurora kinase A (Homo sapiens), sequence (O14965 whole entry): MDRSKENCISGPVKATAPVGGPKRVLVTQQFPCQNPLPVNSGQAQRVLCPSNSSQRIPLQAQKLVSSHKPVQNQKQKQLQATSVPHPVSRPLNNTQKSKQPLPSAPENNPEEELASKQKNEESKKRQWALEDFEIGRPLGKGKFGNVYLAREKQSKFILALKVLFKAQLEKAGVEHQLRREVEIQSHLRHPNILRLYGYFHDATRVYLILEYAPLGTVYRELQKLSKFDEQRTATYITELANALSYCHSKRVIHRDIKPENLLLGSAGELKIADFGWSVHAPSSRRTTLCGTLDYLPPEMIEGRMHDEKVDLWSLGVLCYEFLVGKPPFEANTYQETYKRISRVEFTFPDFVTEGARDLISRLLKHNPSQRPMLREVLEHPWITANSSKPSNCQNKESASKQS
# Casein kinase I isoform alpha (Homo sapiens), sequence (P48729 2-337 limits assumed): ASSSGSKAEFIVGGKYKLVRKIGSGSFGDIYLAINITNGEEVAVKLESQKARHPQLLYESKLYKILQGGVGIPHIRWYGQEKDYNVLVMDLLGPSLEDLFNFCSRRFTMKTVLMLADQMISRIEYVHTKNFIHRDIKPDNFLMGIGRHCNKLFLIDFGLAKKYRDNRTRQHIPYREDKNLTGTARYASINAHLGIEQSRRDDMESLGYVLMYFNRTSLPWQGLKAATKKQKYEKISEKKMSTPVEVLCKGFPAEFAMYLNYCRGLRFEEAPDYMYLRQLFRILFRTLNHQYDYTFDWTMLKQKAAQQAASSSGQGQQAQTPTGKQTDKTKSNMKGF
# Cyclin-dependent kinase 17 (Homo sapiens), sequence (Q00537 whole entry, looked up): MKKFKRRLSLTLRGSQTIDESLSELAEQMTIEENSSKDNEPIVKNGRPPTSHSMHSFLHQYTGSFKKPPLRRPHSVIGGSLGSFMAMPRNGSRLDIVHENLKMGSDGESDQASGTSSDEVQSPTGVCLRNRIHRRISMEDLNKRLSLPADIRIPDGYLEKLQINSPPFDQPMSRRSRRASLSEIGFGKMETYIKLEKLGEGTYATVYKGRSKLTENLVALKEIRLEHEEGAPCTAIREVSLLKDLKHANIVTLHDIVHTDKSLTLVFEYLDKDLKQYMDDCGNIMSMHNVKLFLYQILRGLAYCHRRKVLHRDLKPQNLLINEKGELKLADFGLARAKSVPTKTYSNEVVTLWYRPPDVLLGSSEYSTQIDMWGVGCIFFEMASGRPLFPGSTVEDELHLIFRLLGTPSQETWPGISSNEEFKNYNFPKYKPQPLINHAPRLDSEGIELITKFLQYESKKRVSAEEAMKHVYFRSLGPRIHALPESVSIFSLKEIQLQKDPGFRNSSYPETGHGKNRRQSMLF
# Serine/threonine-protein kinase PLK1 (Homo sapiens), sequence (P53350 whole entry): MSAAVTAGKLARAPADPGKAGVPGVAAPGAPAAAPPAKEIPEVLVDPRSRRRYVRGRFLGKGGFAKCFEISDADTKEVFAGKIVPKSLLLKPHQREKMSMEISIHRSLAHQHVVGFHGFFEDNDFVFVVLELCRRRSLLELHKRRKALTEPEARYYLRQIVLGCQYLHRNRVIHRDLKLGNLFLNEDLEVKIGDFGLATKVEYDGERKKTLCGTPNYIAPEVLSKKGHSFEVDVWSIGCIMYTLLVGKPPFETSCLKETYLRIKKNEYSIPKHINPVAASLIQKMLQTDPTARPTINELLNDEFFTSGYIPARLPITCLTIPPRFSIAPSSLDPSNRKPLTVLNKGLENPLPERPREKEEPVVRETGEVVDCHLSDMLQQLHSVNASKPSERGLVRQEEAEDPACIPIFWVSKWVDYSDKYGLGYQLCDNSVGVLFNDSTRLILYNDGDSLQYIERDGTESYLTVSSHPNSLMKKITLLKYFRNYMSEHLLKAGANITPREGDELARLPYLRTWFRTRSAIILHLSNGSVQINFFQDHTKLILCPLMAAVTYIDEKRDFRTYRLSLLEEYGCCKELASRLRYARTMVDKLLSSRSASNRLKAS
SMILES,residual activity [1],residual activity [2],residual activity [3],residual activity [4],residual activity [5],residual activity [6],inhibition [7],residual activity [8],residual activity [9],residual activity [10],residual activity [11],residual activity [12],inhibition [13],residual activity [14],residual activity [15],residual activity [16],residual activity [17],residual activity [18],residual activity [19],residual activity [20],also measured
Cc1nccc(COC(=O)N2C[C@@H]3[C@@H](CNC(=O)c4ccc5[nH]nnc5c4)[C@@H]3C2)n1 [BI 3017],100%,91%,86%,78%,100%,70%,9.85%,100%,90%,75%,100%,80%,-7.66%,100%,100%,87%,91%,98%,96%,100%,residual activity [21]: 85%; residual activity [22]: 65%; residual activity [23]: 93%; residual activity [24]: 100%; residual activity [25]: 90%; residual activity [26]: 91%; residual activity [27]: 85%; residual activity [28]: 87%; residual activity [29]: 81%; residual activity [30]: 100%; residual activity [31]: 92%; inhibition [32]: 9.56%; residual activity [33]: 84%; residual activity [34]: 100%; residual activity [35]: 100%; inhibition [36]: 27.1%; residual activity [37]: 85%; residual activity [38]: 100%
O=C(NC[C@@H]1[C@H]2CN(C(=O)OCc3cc(C(F)(F)F)cc(C(F)(F)F)c3)C[C@@H]12)c1ccc2[nH]nnc2c1 [BI 2545],100%,84%,100%,100%,100%,45%,1.13%,100%,100%,94%,79%,95%,0.91%,100%,93%,83%,90%,100%,88%,77%,residual activity [21]: 100%; residual activity [22]: 91%; residual activity [23]: 97%; residual activity [24]: 91%; residual activity [25]: 91%; residual activity [26]: 93%; residual activity [27]: 92%; residual activity [28]: 100%; residual activity [29]: 84%; residual activity [30]: 89%; residual activity [31]: 100%; inhibition [32]: 19%; residual activity [33]: 86%; residual activity [34]: 85%; residual activity [35]: 100%; inhibition [36]: 45.9%; residual activity [37]: 91%; residual activity [38]: 99%
